Results published in US20110009429A1, “HETEROCYCLIC COMPOUNDS AS INHIBITORS OF CXCR2” (priority 2008, published 2011).

target: T1, human CXCR2 receptor (Homo sapiens, UniProt P25025); assay: [35S]-GTPγS binding assay for human CXCR2 receptor using SPA technology; assay type: biochemical; conditions: CHO-K1 membranes expressing human CXCR2 receptors; 100 nM IL-8 stimulated [35S]GTPγS binding; read-out: IC50 values in the [35S]-GPTγS binding assay
T1 construct: purchased Biosignal Packard Inc; host or cells: CHO-K1 membranes
T1 sequence (P25025 1-360): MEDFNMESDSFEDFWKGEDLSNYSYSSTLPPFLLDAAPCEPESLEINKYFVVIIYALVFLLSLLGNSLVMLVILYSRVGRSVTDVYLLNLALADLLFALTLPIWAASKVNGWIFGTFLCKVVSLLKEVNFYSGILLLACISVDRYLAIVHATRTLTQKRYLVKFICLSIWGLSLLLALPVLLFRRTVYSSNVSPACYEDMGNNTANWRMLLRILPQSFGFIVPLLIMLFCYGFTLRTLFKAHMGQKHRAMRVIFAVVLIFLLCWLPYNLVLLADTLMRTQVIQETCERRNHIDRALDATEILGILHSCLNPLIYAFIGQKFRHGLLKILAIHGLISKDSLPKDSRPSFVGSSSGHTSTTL
Excerpt: [^35S]-GTPγS Binding Assay for Human CXCR2 Receptor Using SPA Technology
[^35S]-GTPγS (with specific activity 1082 Ci/mmol) and wheat germ agglutinin poly vinyl toluene scintillation proximity beads are purchased from Amersham Pharmacia Biotech. The Chinese hamster ovary cell (CHO-K1) membranes expressing human CXCR2 receptors are purchased from Biosignal Packard Inc. All other chemicals are of analytical grade. White non-binding surface 96 well Optiplate™ microplates are obtained from Packard. Recombinant human IL-8 is synthesised, cloned and expressed in Escherichia coli as described previously (Lindley I, et al., Proc. Natl. Acad. Sci., 1988, 85(23):9199). The assay is performed in duplicate in 96 well Optiplate™ microplate in a final volume of 250 μl per well. Compounds are diluted in DMSO (0.5% final concentration) and incubated in 20 mM HEPES buffer pH 7.4 containing 10 mM MgCl2, 100 mM NaCl, 1 mM EDTA plus 100 nM IL-8, 50 μM GDP and 500 pM [^35S]GTPγS per well. SPA beads (1 mg/well final concentration) were pre-mixed with the membranes (10 μg/well final concentration) in assay buffer: 20 mM HEPES buffer pH 7.4 containing 10 mM MgCl2, 100 mM NaCl, 1 mM EDTA. The bead membrane mixture is added to each well, plates are sealed and incubated at room temperature for 60 minutes. The plate is centrifuged and read on Packard TopCount™ scintillation counter, program [^35S dpm] for 1 min/well. Data are expressed as the % response to 100 nM IL-8 minus basal.

How did the IC50 turn out when `Cc1cc2nc(CCc3ccccc3F)cc(O)n2n1` [Example 1, 5-[2-(2-Fluoro-phenyl)-ethyl]-2-methyl-pyrazolo[1,5-a]pyrimidin-7-ol] was run?
The IC50 was 2970 nM.

Which IC50 does the source give for `Oc1cc(CCc2ccccc2Cl)nc2cc(Cc3ccccc3)nn12` [Example 4, 2-Benzyl-5-[2-(2-chloro-phenyl)-ethyl]-pyrazolo[1,5-a]pyrimidin-7-ol] here?
The IC50 was 660 nM.

Which IC50 does the source give for `Oc1cc(CCc2cccc(F)c2F)nc2cc(-c3ccco3)nn12` [Example 7, 5-[2-(2,3-Difluoro-phenyl)-ethyl]-2-furan-2-yl-pyrazolo[1,5-a]pyrimidin-7-ol] here?
Its IC50 is 220 nM.

`Cc1cc2nc(COc3ccccc3Cl)cc(O)n2n1` [Example 10, 5-(2-Chloro-phenoxymethyl)-2-methyl-pyrazolo[1,5-a]pyrimidin-7-ol] was tested. Which IC50 did it give?
Its IC50 is 4890 nM.

With `Oc1cc(COc2c(F)cccc2F)nc2cc(-c3ccco3)nn12` [Example 14, 5-(2,6-Difluoro-phenoxymethyl)-2-furan-2-yl-pyrazolo[1,5-a]pyrimidin-7-ol] as the compound, how does the IC50 read?
Its IC50 is 3830 nM.

How did the IC50 turn out when `Oc1cc(COc2cccnc2Cl)nc2cc(-c3ccco3)nn12` [Example 17, 5-(2-Chloro-pyridin-3-yloxymethyl)-2-furan-2-yl-pyrazolo[1,5-a]pyrimidin-7-ol] was run?
The IC50 was 990 nM.

How did the IC50 turn out when `Oc1cc(COc2cccc(F)c2F)nc2cc(-c3ccco3)nn12` [Example 22, 5-(2,3-Difluoro-phenoxymethyl)-2-furan-2-yl-pyrazolo[1,5-a]pyrimidin-7-ol] was run?
Its IC50 is 1740 nM.

How did the IC50 turn out when `Oc1cc(COc2ccccc2Cl)nc2cc(-c3ccco3)nn12` [Example 23, 5-(2-Chloro-phenoxymethyl)-2-furan-2-yl-pyrazolo[1,5-a]pyrimidin-7-ol] was run?
The IC50 was 1770 nM.
